According to patent publication US10653667B2, “Drug for preventing, treating or preventing metastasis of giant cell tumor that occurs in bone or soft parts, chondrosarcoma, or osteosarcoma, local injection for arterial embolization, and artificial bone” (NIPPON CHEMIPHAR CO., LTD, priority 2013, dated 2020):
Where “and” joins values, the source holds several entries; their conditions need not be identical. Equal values may be shown once.

Key:
[1] = test system: PPARγ expression in H-EMC-SS cells; conditions: inventors' earlier reports; cited from earlier work
OUMS-27 cells = assay: Suppression of proliferation of human chondrosarcoma cell line OUMS-27 (CCK-8); format: cell-based; conditions: at concentrations of 200 μM and 400 μM (50-400 μM tested); 72 hours
[2] = test system: pigmented villonodular synovitis (PVNS); assay: Curative effect of zaltoprofen (Soleton Tablet) on PVNS patients; format: in vivo, human
Procedure: Soleton Tablet 80 (generic name: zaltoprofen, 80 mg, Nippon Chemiphar) was administered to a patient with giant cell tumor of bone (GCTB), patient with giant cell tumor of tendon sheath (GCTT), or patient with pigmented villonodular synovitis (PVNS) at a dose of 3 tablets per day (one tablet was administered in the morning, at noon, and in the evening), and the tumor size was evaluated by MRI every several months.
PVNS patients were administered with 3 tablets per day (one tablet was administered in the morning, at noon, and in the evening) of Soleton Tablet 80 (generic name; zaltoprofen, 80 mg, Nippon Chemiphar). Four weeks after the start of the administration, the tumor size was evaluated by imaging based on simple Roentgen contrast method, X-ray CT, and MRI (nuclear magnetic resonance imaging). Then, the tumors were excised from patients for whom surgical operation was possible, administration of zaltoprofen was continued at a dose of 240 mg per day (one 80 mg tablet was administered at the time of breakfast, lunch, and supper), and the tumor size was evaluated by imaging based on simple Roentgen contrast method, X-ray CT, and MRI (nuclear magnetic resonance imaging) every 16 weeks. Also for patients for whom surgical operation was difficult, administration of 240 mg zaltoprofen per day (one 80 mg tablet was administered at the time of breakfast, lunch, and supper) was continued, and the tumor size was evaluated by imaging based on simple Roentgen contrast method, X-ray CT, and MRI (nuclear magnetic resonance imaging) every 8 weeks.

HOS cells = assay: Suppression of proliferation of human bone sarcoma cell line HOS (CCK-8); format: cell-based; conditions: 72 hours
Procedure: Cells of the human bone sarcoma cell line, HOS (purchased from American Type Culture Collection), were cultured in the same manner as that of Example 1 until they became sub-confluent. Zaltoprofen was added to the cells at concentrations of 25, 50, 100, 200 and 400 μM, color development was performed with Cell Counting Kit-8 (CCK-8, Dojindo) 72 hours thereafter, and absorbance was measured at 450 nm further 3 hours thereafter (FIG. 72).

[3] = test system: PPARγ expression in giant cell tumor of bone (GCTB); assay: PPARγ staining of operational excision sample of GCTB patient administered with zaltoprofen; format: in vivo, human; conditions: 3 tablets per day Soleton Tablet 80 for about 28 days
Procedure: An operational excision sample of a person who had been administered with 3 tablets per day of the zaltoprofen tablets, Soleton Tablet 80 (generic name: zaltoprofen, 80 mg, Nippon Chemiphar) for about 28 days for pain due to the tumor, and then subjected to the operation, and an operational excision sample of giant cell tumor of bone excised from a patient with giant cell tumor of bone not administered with zaltoprofen (case in which tumor was excised by usual surgical operation according to standard therapy) as a control were subjected to staining of PPARγ, and expression of PPARγ was analyzed by PCR. For PCR, Hs_PPARG_1_SGQuantiTect Primer Assay (200) (QT00029841) of QIAGEN was used. Observation was performed with a fluorescence microscope (BZ-9000) of Keyence (FIG. 11).

[4] = test system: synovial cells derived from rheumatism patients; conditions: cited from earlier work
H-EMC-SS cells = assay: Suppression of cell proliferation of chondrosarcoma cell line H-EMC-SS (CCK-8); format: cell-based, human; conditions: drug at various concentrations
Source text: The H-EMC-SS cells were obtained from the Riken BioResource Center.
The H-EMC-SS cells were obtained from the Riken BioResource Center. As the SW1353 cells, those obtained from ATCC were used.

[5] = test system: GCTB cultured cells of the case 1; assay: Fat cell differentiation of GCTB cultured cells (HCS Lipid TOX Green Neutral Lipid Stain); format: cell-based, human; conditions: zaltoprofen 10, 50, 100 μM; fat cell differentiation-inducing medium 7 to 14 days
Procedure: It has been reported that PPARγ is a transcription factor indispensable for fat cell differentiation. Therefore, the GCTB cultured cells of the aforementioned case 1 were cultured on chamber cover slide glass, and when they reached confluent, zaltoprofen was added to the cells at various concentrations (10, 50, and 100 μM). From 24 hours thereafter, the cells were cultured in a fat cell differentiation-inducing medium (STREMPRO Adipogenesis Differentiation Kit, Invitrogen) for 7 to 14 days, and differentiation into fat cells was analyzed with HCS Lipid TOX Green Neutral Lipid Stain (Invitrogen) (FIGS. 8 and 9).

[6] = recurrence of PVNS in the right knee (person; case b), after two months

CC(C(=O)O)c1ccc2c(c1)CC(=O)c1ccccc1S2 (centres unmarked) [zaltoprofen]
expression of PPARγ in H-EMC-SS cells [1]: promoted expression of PPARγ
suppression of proliferation of OUMS-27 cells (OUMS-27 cells): suppressed proliferation
diameter of PVNS after taking zaltoprofen ([2]; PVNS case a, shoulder joint, about 50 weeks, 27.7 mm before): 7.9 mm
diameter (major axis) of PVNS after taking zaltoprofen ([2]; PVNS case c, right knee joint, about 35 weeks, 59.5 mm before): 47.2 mm and 48.0 mm
KPS score after taking zaltoprofen ([2]; PVNS cases a and b, score 70 before): 100
change of PVNS ([2]; PVNS cases a, b, c, d, e, and f, no treatment except zaltoprofen): shrank
KPS score after taking zaltoprofen ([2]; PVNS cases c and d, score 80 before): 90
new metastasis during the taking of zaltoprofen ([2]; PVNS patients): any new metastasis of PVNS was not observed
recurrence during the taking of zaltoprofen after ablative operation ([2]; PVNS patients subjected to ablative operation): no recurrence of PVNS could be confirmed
shrinkage of PVNS in patients who took zaltoprofen ([2]; all the patients): shrinkage of PVNS could be confirmed in all the patients
number of cases judged to be partial response (PR) ([2]; among 11 PVNS cases for which the response rate was determined, 240 mg per day): one
cases in which the KPS score worsened ([2]; cases of PVNS who took zaltoprofen): no case in which the KPS score worsened
response judgement of all the PVNS patients who took zaltoprofen ([2]; human, in vivo): partial response (PR) or stable disease (SD)
MRI imaging effect ([2]; recurrence of PVNS in the right knee (case i), 3 tablets per day, after three months): attenuation of the MRI imaging effect
pain and knee-joint excursion ([2]; recurrence of PVNS in the right knee (case i), after three months): improvement was observed
pain [2, 6]: improvement of pain
tumor size by MRI [2, 6]: shrinkage of tumor
suppression of proliferation of HOS cells (HOS cells; 400 μM zaltoprofen): about 60%
suppression of cell proliferation of HOS cells (HOS cells; at 100 μM, 200 μM and 400 μM, concentration-dependent (25-400 μM tested)): suppressed
fat cell differentiation in excision sample [3]: fat cell differentiation could be confirmed
PPARγ-expressing cells in excision sample ([3]; vs patient not administered): PPARγ-expressing cells could be confirmed
activation of PPARγ [4]: activated PPARγ
apoptosis [4]: caused apoptosis
suppression of proliferation of the cells [4]: suppress proliferation
suppression of cell proliferation (absorbance at 450 nm) (H-EMC-SS cells): cell proliferation was suppressed
positive images obtained with HCS Lipid TOX Green Neutral Lipid Stain (differentiation into fat cells) [5]: increased in a zaltoprofen concentration-dependent manner
